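Compound exposure: 48 hours, 5 concentrations, 96-well plates. At the GI50, growth is halved.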 Calls of active or inactive are those of the source. No stated cut-off is given here; in the data, active = GI50 up to about 1.1 µM and inactive = higher.
Legend:
Assay in all cases: growth of human tumour cells (NCI), 48 h
[1] = tested on: 786-0
[2] = tested on: A498
[3] = tested on: A549
[4] = tested on: ACHN
[5] = tested on: CAKI-1
[6] = tested on: CCRF-CEM
[7] = tested on: COLO 205
[8] = tested on: DLD-1
[9] = tested on: DMS-114
[10] = tested on: DMS-273
[11] = tested on: EKVX
[12] = tested on: HCC 2998
[13] = tested on: HCT-15
[14] = tested on: HL-60
[15] = tested on: HOP-18
[16] = tested on: HOP-62
[17] = tested on: HOP-92
[18] = tested on: HT-29
[19] = tested on: IGROV-1
[20] = tested on: K562
[21] = tested on: KM-20L2
[22] = tested on: KM12
[23] = tested on: LOX IMVI
[24] = tested on: LXFL 529
[25] = tested on: M14
[26] = tested on: M19-MEL
[27] = tested on: MOLT-4
[28] = tested on: Malme-3M
[29] = tested on: NCI-H226
[30] = tested on: NCI-H23
[31] = tested on: NCI-H460
[32] = tested on: OVCAR-3
[33] = tested on: OVCAR-4
[34] = tested on: OVCAR-5
[35] = tested on: OVCAR-8
[36] = tested on: RPMI-8226
[37] = tested on: RXF 393
[38] = tested on: RXF 631
[39] = tested on: SF-268
[40] = tested on: SF-295
[41] = tested on: SF-539
[42] = tested on: SK-MEL-28
[43] = tested on: SK-MEL-2
[44] = tested on: SK-MEL-5
[45] = tested on: SK-OV-3
[46] = tested on: SN12C
[47] = tested on: SNB-75
[48] = tested on: SNB-78
[49] = tested on: SW-620
[50] = tested on: TK-10
[51] = tested on: U-251
[52] = tested on: UACC-257
[53] = tested on: UACC-62
[54] = tested on: UO-31
[55] = tested on: XF498
[56] = tested on: HCT-116
[57] = tested on: NCI-H522
[58] = tested on: SNB-19
[59] = tested on: SR

With `Cc1ccc(C2=NO[C@@H]3C(=O)N(c4ccc(Cc5ccc(N6C(=O)[C@H]7C(c8ccc(C)cc8)=NO[C@H]7C6=O)cc5)cc4)C(=O)[C@H]23)cc1` the GI50 [1] was > 100 µM (inactive), the GI50 [2] was > 100 µM (inactive) and the GI50 [3] was > 100 µM (inactive). For the same compound, the GI50 [4] was > 100 µM (inactive), the GI50 [5] was > 100 µM (inactive) and the GI50 [6] was > 100 µM (inactive). The GI50 [7] was > 100 µM (inactive), the GI50 [8] was > 100 µM (inactive) and the GI50 [9] was > 100 µM (inactive). For the same compound, the GI50 [10] was > 100 µM (inactive), the GI50 [11] was > 100 µM (inactive) and the GI50 [12] was > 100 µM (inactive). For the same compound, the GI50 [13] was > 100 µM, the GI50 [14] was > 100 µM (inactive) and the GI50 [15] was > 100 µM (inactive). For the same compound, the GI50 [16] was > 100 µM (inactive), the GI50 [17] was > 100 µM (inactive) and the GI50 [18] was > 100 µM (inactive). For the same compound, the GI50 [19] was > 100 µM (inactive), the GI50 [20] was > 100 µM (inactive) and the GI50 [21] was > 100 µM (inactive). The GI50 [22] was > 100 µM (inactive), the GI50 [23] was > 100 µM (inactive) and the GI50 [24] was > 100 µM (inactive). The GI50 [25] was > 100 µM (inactive), the GI50 [26] was > 100 µM (inactive) and the GI50 [27] was > 10 µM (inactive). The GI50 [28] was > 100 µM (inactive), the GI50 [29] was > 100 µM (inactive) and the GI50 [30] was > 100 µM (inactive). For the same compound, the GI50 [31] was > 100 µM (inactive), the GI50 [32] was > 100 µM (inactive) and the GI50 [33] was > 100 µM (inactive). For the same compound, the GI50 [34] was > 100 µM (inactive), the GI50 [35] was > 100 µM (inactive) and the GI50 [36] was > 100 µM (inactive). For the same compound, the GI50 [37] was > 100 µM (inactive), the GI50 [38] was > 100 µM (inactive) and the GI50 [39] was > 100 µM (inactive). For the same compound, the GI50 [40] was > 100 µM (inactive), the GI50 [41] was > 100 µM (inactive) and the GI50 [42] was > 100 µM (inactive). The GI50 [43] was > 100 µM (inactive), the GI50 [44] was > 100 µM (inactive) and the GI50 [45] was > 100 µM (inactive). For the same compound, the GI50 [46] was > 100 µM (inactive), the GI50 [47] was 79.4 µM (inactive) and the GI50 [48] was > 100 µM (inactive). For the same compound, the GI50 [49] was > 100 µM (inactive), the GI50 [50] was > 100 µM (inactive) and the GI50 [51] was > 100 µM (inactive). For the same compound, the GI50 [52] was 38.7 µM (inactive), the GI50 [53] was > 100 µM (inactive) and the GI50 [54] was > 100 µM (inactive). For the same compound, the GI50 [55] was > 100 µM (inactive).

`O=C(Nc1nc2ncn(CCO)c2c(=S)[nH]1)c1ccccc1` was tested, and the GI50 [1] was > 100 µM (inactive), the GI50 [2] was > 100 µM (inactive) and the GI50 [3] was > 100 µM (inactive). For the same compound, the GI50 [4] was > 100 µM (inactive), the GI50 [5] was > 100 µM (inactive) and the GI50 [6] was > 100 µM (inactive). The GI50 [7] was > 100 µM (inactive), the GI50 [8] was > 100 µM (inactive) and the GI50 [9] was > 100 µM (inactive). For the same compound, the GI50 [10] was > 100 µM (inactive), the GI50 [11] was > 100 µM (inactive) and the GI50 [56] was > 100 µM (inactive). The GI50 [13] was > 100 µM, the GI50 [14] was > 100 µM (inactive) and the GI50 [15] was > 100 µM (inactive). The GI50 [16] was > 100 µM (inactive), the GI50 [17] was > 100 µM (inactive) and the GI50 [18] was > 100 µM (inactive). The GI50 [19] was > 100 µM (inactive), the GI50 [20] was > 100 µM (inactive) and the GI50 [21] was > 100 µM (inactive). For the same compound, the GI50 [22] was > 100 µM (inactive), the GI50 [23] was > 100 µM (inactive) and the GI50 [24] was > 100 µM (inactive). For the same compound, the GI50 [25] was > 100 µM (inactive), the GI50 [26] was > 100 µM (inactive) and the GI50 [28] was > 100 µM (inactive). The GI50 [29] was > 100 µM (inactive), the GI50 [31] was > 100 µM (inactive) and the GI50 [57] was > 100 µM (inactive). The GI50 [32] was > 100 µM (inactive), the GI50 [33] was > 100 µM (inactive) and the GI50 [34] was > 100 µM (inactive). For the same compound, the GI50 [35] was > 100 µM (inactive), the GI50 [36] was > 100 µM (inactive) and the GI50 [37] was > 100 µM (inactive). For the same compound, the GI50 [38] was > 10 µM (inactive), the GI50 [39] was > 100 µM (inactive) and the GI50 [40] was > 100 µM (inactive). For the same compound, the GI50 [41] was > 100 µM (inactive), the GI50 [43] was > 100 µM (inactive) and the GI50 [44] was > 100 µM (inactive). The GI50 [45] was > 100 µM (inactive), the GI50 [46] was > 100 µM (inactive) and the GI50 [58] was > 100 µM (inactive). For the same compound, the GI50 [47] was > 100 µM (inactive), the GI50 [48] was > 100 µM (inactive) and the GI50 [59] was > 100 µM (inactive). The GI50 [49] was > 100 µM (inactive), the GI50 [50] was > 100 µM (inactive) and the GI50 [51] was > 100 µM (inactive). The GI50 [52] was > 100 µM (inactive), the GI50 [53] was > 100 µM (inactive) and the GI50 [54] was > 100 µM (inactive). For the same compound, the GI50 [55] was > 100 µM (inactive).

Source: ChEMBL document CHEMBL1201862, “PubChem BioAssay data set” (2004)
